For 25 molecules, IC50 results are on record in US9862708B2, “Pyrazolone compounds and uses thereof” (Tempest Therapeutics, Inc., priority 2014, dated 2018).

The structures appear in SMILES notation.

In the assay the target is T1, human PPARα (Homo sapiens, UniProt Q07869).
T1 construct: host or cells: proprietary non-human mammalian cells
T1 sequence (Q07869 1-468): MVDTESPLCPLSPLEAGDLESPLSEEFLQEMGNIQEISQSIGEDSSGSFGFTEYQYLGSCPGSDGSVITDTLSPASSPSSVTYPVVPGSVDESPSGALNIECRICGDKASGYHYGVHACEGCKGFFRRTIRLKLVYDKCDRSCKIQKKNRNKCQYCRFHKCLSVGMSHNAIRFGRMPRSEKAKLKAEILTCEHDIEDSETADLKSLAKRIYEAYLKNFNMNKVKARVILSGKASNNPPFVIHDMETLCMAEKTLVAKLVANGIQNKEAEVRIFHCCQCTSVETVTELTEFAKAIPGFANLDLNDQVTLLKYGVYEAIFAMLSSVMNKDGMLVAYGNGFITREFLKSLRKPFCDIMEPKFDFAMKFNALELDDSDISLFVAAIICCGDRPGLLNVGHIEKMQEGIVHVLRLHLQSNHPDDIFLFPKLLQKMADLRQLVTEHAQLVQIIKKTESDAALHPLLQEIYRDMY
The assay can be described thus: Human PPARα Reporter Assay (luciferase, Indigo Biosciences). The class given is cell-based. The settings on record: antagonism; luciferase reporter cells, overnight incubation; read-out: PPARα IC50. On the procedure: Human PPARα Reporter Assay
The screening of test compounds for agonist or antagonist activities against human PPARα receptors was performed using a commercial kit, Human PPARα Reporter Assay System (Indigo Biosciences, Cat. #IB00111).
This nuclear receptor assay system utilizes proprietary non-human mammalian cells engineered to provide constitutive, high-level expression of Human PPARα. Because these cells incorporate a PPARα-responsive luciferase reporter gene, quantifying expressed luciferase activity provides a sensitive surrogate measure of PPARα activity in the treated cells. The primary application of this reporter assay system is in the screening of test samples to quantify any functional activity, either agonist or antagonist, that they may exert against human PPARα.
Briefly, reporter cells are dispensed into wells of the assay plate and then immediately dosed with test compounds. Following an overnight incubation, the treatment media is discarded and Luciferase Detection Reagent (LDR) is added. The intensity of light emission from the ensuing luciferase reaction provides a sensitive measure that is directly proportional to the relative level of PPARα activation in the reporter cells.
A general note: In a reporter assay the amount or activity of a reporter protein is the signal.
`CC1(C)C(=O)N(c2ccc(C(F)(F)F)cc2)N=C1CCCc1ccc(OC(C)(C(=O)O)c2ccccc2)cc1` (single isomer, unassigned) [53-enantiomer#1, 2-(4-(3-(4,4-dimethyl-5-oxo-1-(4-(trifluoromethyl)phenyl)-4,5-dihydro-1H-pyrazol-3-yl)propyl)phenoxy)-2-phenylpropanoic acid]: the IC50 was determined as 0.82 µM.
In the case of `CC1(C)C(=O)N(c2ccc(C(F)(F)F)cc2)N=C1CCCc1ccc(OC(C)(C(=O)O)c2ccccc2)cc1` (single isomer, unassigned) [53-enantiomer#2, 2-(4-(3-(4,4-dimethyl-5-oxo-1-(4-(trifluoromethyl)phenyl)-4,5-dihydro-1H-pyrazol-3-yl)propyl)phenoxy)-2-phenylpropanoic acid] it was 0.0021 µM; in that of `CC1(C)C(=O)N(c2cccc(C(F)(F)F)c2)N=C1CCCc1ccc(OC(C)(C(=O)O)c2ccccc2)cc1` (single isomer, unassigned) [54-enantiomer#1, 2-(4-(3-(4,4-dimethyl-5-oxo-1-(3-(trifluoromethyl)phenyl)-4,5-dihydro-1H-pyrazol-3-yl)propyl)phenoxy)-2-phenylpropanoic acid], 0.64 µM; in that of `CC1(C)C(=O)N(c2cccc(C(F)(F)F)c2)N=C1CCCc1ccc(OC(C)(C(=O)O)c2ccccc2)cc1` (single isomer, unassigned) [54-enantiomer#2, 2-(4-(3-(4,4-dimethyl-5-oxo-1-(3-(trifluoromethyl)phenyl)-4,5-dihydro-1H-pyrazol-3-yl)propyl)phenoxy)-2-phenylpropanoic acid], 0.0089 µM.
For the molecule `CC(C)(Oc1ccc(CCCC2=NN(Cc3ccc(C(C)(C)C)cc3)C(=O)C2(C)C)cc1)C(=O)O` [Example 1, 2-(4-(3-(1-(4-(tert-butyl)benzyl)-4,4-dimethyl-5-oxo-4,5-dihydro-1H-pyrazol-3-yl)propyl)phenoxy)-2-methylpropanoic acid], the IC50 was 0.015 µM.
As for `CC(C)(Oc1ccc(CCCC2=NN(Cc3ccc(C(C)(C)C)cc3)C(=O)C2(C)C)cc1)C(=O)NS(=O)(=O)c1ccccc1` [Example 2, 2-(4-(3-(1-(4-(tert-butyl)benzyl)-4,4-dimethyl-5-oxo-4,5-dihydro-1H-pyrazol-3-yl)propyl)phenoxy)-2-methyl-N-(phenylsulfonyl)propanamide], the figure is 0.0021 µM.
As for `CC(C)(Oc1ccc(CCCC2=NN(Cc3ccc(C(C)(C)C)cc3)C(=O)C2(C)C)cc1)C(=O)NCc1ccccc1` [Example 3, N-benzyl-2-(4-(3-(1-(4-(tert-butyl)benzyl)-4,4-dimethyl-5-oxo-4,5-dihydro-1H-pyrazol-3-yl)propyl)phenoxy)-2-methylpropanamide], the figure is 0.16 µM.
In the case of `CC(C)(Oc1ccc(CCCC2=NN(Cc3ccc(C(C)(C)C)cc3)C(=O)C2(C)C)cc1)C(=O)NCc1ccccn1` [Example 4, 2-(4-(3-(1-(4-(tert-butyl)benzyl)-4,4-dimethyl-5-oxo-4,5-dihydro-1H-pyrazol-3-yl)propyl)phenoxy)-2-methyl-N-(pyridin-2-ylmethyl)propanamide] it was 0.24 µM.
For `CC(C)(Oc1ccc(CCCC2=NN(Cc3ccc(C(C)(C)C)cc3)C(=O)C2(C)C)cc1)C(=O)NCc1ccncc1` [Example 5, 2-(4-(3-(1-(4-(tert-butyl)benzyl)-4,4-dimethyl-5-oxo-4,5-dihydro-1H-pyrazol-3-yl)propyl)phenoxy)-2-methyl-N-(pyridin-4-ylmethyl)propanamide], the half-inhibitory concentration (IC50) was determined as 0.28 µM.
In the case of `CC(C)(Oc1ccc(CCCC2=NN(Cc3ccc(C(C)(C)C)cc3)C(=O)C2(C)C)cc1)C(=O)NCC1CCCCC1` [Example 6, 2-(4-(3-(1-(4-(tert-butyl)benzyl)-4,4-dimethyl-5-oxo-4,5-dihydro-1H-pyrazol-3-yl)propyl)phenoxy)-N-(cyclohexylmethyl)-2-methylpropanamide], the half-inhibitory concentration (IC50) is 0.42 µM.
As for `CC(C)(Oc1ccc(CCCC2=NN(Cc3cccc(C(F)(F)F)c3)C(=O)C2(C)C)cc1)C(=O)O` [Example 7, 2-(4-(3-(4,4-dimethyl-5-oxo-1-(3-(trifluoromethyl)benzyl)-4,5-dihydro-1H-pyrazol-3-yl)propyl)phenoxy)-2-methylpropanoic acid], the IC50 worked out at 0.9 µM.
Consider `CC(C)(Oc1ccc(CCCC2=NN(Cc3ccc(C(F)(F)F)cc3)C(=O)C2(C)C)cc1)C(=O)O` [Example 8, 2-(4-(3-(4,4-dimethyl-5-oxo-1-(4-(trifluoromethyl)benzyl)-4,5-dihydro-1H-pyrazol-3-yl)propyl)phenoxy)-2-methylpropanoic acid], for which the IC50 was 0.062 µM.
In the case of `CC(C)(Oc1ccc(CCCC2=NN(CCc3ccccc3)C(=O)C2(C)C)cc1)C(=O)O` [Example 9, 2-(4-(3-(4,4-dimethyl-5-oxo-1-phenethyl-4,5-dihydro-H-pyrazol-3-yl)propyl)phenoxy)-2-methylpropanoic acid] it was 1 µM; in that of `CC(C)(Oc1ccc(CCCC2=NN(c3ccccc3)C(=O)C2(C)C)cc1)C(=O)O` [Example 10, 2-(4-(3-(4,4-dimethyl-5-oxo-1-phenyl-4,5-dihydro-1H-pyrazol-3-yl)propyl)phenoxy)-2-methylpropanoic acid], 0.41 µM.
In the case of `CC(C)(Oc1ccc(CCCC2=NN(c3ccc(C(C)(C)C)cc3)C(=O)C2(C)C)cc1)C(=O)O` [Example 11, 2-(4-(3-(1-(4-(tert-butyl)phenyl)-4,4-dimethyl-5-oxo-4,5-dihydro-1H-pyrazol-3-yl)propyl)phenoxy)-2-methylpropanoic acid] it was 0.0081 µM; in that of `CC(C)c1ccc(CN2N=C(CCCc3ccc(OC(C)(C)C(=O)O)cc3)C(C)(C)C2=O)cc1` [Example 12, 2-(4-(3-(1-(4-isopropylbenzyl)-4,4-dimethyl-5-oxo-4,5-dihydro-1H-pyrazol-3-yl)propyl)phenoxy)-2-methylpropanoic acid], 0.022 µM; in that of `CC(C)(Oc1ccc(CCCC2=NN(Cc3ccc(Br)cc3)C(=O)C2(C)C)cc1)C(=O)O` [Example 13, 2-(4-(3-(1-(4-bromobenzyl)-4,4-dimethyl-5-oxo-4,5-dihydro-1H-pyrazol-3-yl)propyl)phenoxy)-2-methylpropanoic acid], 0.36 µM.
As for `CC(C)(Oc1ccc(CCCC2=NN(Cc3ccc(-c4ccccc4)cc3)C(=O)C2(C)C)cc1)C(=O)O` [Example 14, 2-(4-(3-(1-([1,1′-biphenyl]-4-ylmethyl)-4,4-dimethyl-5-oxo-4,5-dihydro-1H-pyrazol-3-yl)propyl)phenoxy)-2-methylpropanoic acid], the figure is 0.26 µM; as for `CC(C)(Oc1ccc(CCCC2=NN(Cc3ccc(C4=CCCCC4)cc3)C(=O)C2(C)C)cc1)C(=O)O` [Example 15, 2-(4-(3-(4,4-dimethyl-5-oxo-1-((2′,3′,4′,5′-tetrahydro-[1,1′-biphenyl]-4-yl)methyl)-4,5-dihydro-1H-pyrazol-3-yl)propyl)phenoxy)-2-methylpropanoic acid], 0.13 µM.
As for `CC(C)(Oc1ccc(CCCC2=NN(Cc3ccc(C4CC4)cc3)C(=O)C2(C)C)cc1)C(=O)O` [Example 16, 2-(4-(3-(1-(4-cyclopropylbenzyl)-4,4-dimethyl-5-oxo-4,5-dihydro-1H-pyrazol-3-yl)propyl)phenoxy)-2-methylpropanoic acid], the IC50 was found to be 0.14 µM.
`CC(C)(Oc1ccc(CCCC2=NN(Cc3ccc(C4CCCCC4)cc3)C(=O)C2(C)C)cc1)C(=O)O` [Example 17, 2-(4-(3-(1-(4-cyclohexylbenzyl)-4,4-dimethyl-5-oxo-4,5-dihydro-1H-pyrazol-3-yl)propyl)phenoxy)-2-methylpropanoic acid]: the half-maximal inhibitory concentration (IC50) is 0.14 µM.
As for `CC(C)(Oc1ccc(CCCC2=NN(Cc3ccc(C(F)(F)F)c(F)c3)C(=O)C2(C)C)cc1)C(=O)O` [Example 18, 2-(4-(3-(1-(3-fluoro-4-(trifluoromethyl)benzyl)-4,4-dimethyl-5-oxo-4,5-dihydro-1H-pyrazol-3-yl)propyl)phenoxy)-2-methylpropanoic acid], the figure is 0.12 µM.
For the molecule `CC(C)(Oc1ccc(CCCC2=NN(c3ccc(C(F)(F)F)cc3)C(=O)C2(C)C)cc1)C(=O)O` [Example 19, 2-(4-(3-(4,4-dimethyl-5-oxo-1-(4-(trifluoromethyl)phenyl)-4,5-dihydro-1H-pyrazol-3-yl)propyl)phenoxy)-2-methylpropanoic acid], the IC50 worked out at 0.0038 µM.
As for `CC(C)(Oc1ccc(CCCC2=NN(c3cccc(C(F)(F)F)c3)C(=O)C2(C)C)cc1)C(=O)O` [Example 20, 2-(4-(3-(4,4-dimethyl-5-oxo-1-(3-(trifluoromethyl)phenyl)-4,5-dihydro-1H-pyrazol-3-yl)propyl)phenoxy)-2-methylpropanoic acid], the figure is 0.019 µM; as for `CC(C)(Oc1ccc(CCCC2=NN(c3ccc(C(F)(F)F)cn3)C(=O)C2(C)C)cc1)C(=O)O` [Example 21, 2-(4-(3-(4,4-dimethyl-5-oxo-1-(5-(trifluoromethyl)pyridin-2-yl)-4,5-dihydro-1H-pyrazol-3-yl)propyl)phenoxy)-2-methylpropanoic acid], 0.035 µM.

Broadly, the IC50 is the concentration that inhibits the measured activity by half.
